Earlier results in patent publication US20070184040A1, “Compositions for delivery of coenzyme Q10” (priority 2006, published 2007).

- solubility in most hydrophilic solvents, such as water: very poorly soluble
Structure (SMILES): COC1=C(OC)C(=O)C(C/C=C(\C)CC/C=C(\C)CC/C=C(\C)CC/C=C(\C)CC/C=C(\C)CC/C=C(\C)CC/C=C(\C)CC/C=C(\C)CC/C=C(\C)CCC=C(C)C)=C(C)C1=O [CoQ10, Coenzyme Q10]
